Laboratory results taken from PMC2999880 (Neuropharmacology, 2009).
Where two headings read alike, the source gives them in different places.

How the values were obtained:
[1] = target: recombinant α4β2 NNRs expressed in SH-EP1 cells (Homo sapiens, UniProt P17787+P43681); assay: [3H]-nicotine binding to recombinant α4β2 NNRs in SH-EP1 cell membranes; conditions: 5 nM [3H]-nicotine, test compound up to 100 μM
[2] = target: α7 NNR binding sites in rat hippocampal preparations (Rattus norvegicus, UniProt Q05941); assay: [3H]-methyllycaconitine competition binding to rat hippocampal membranes; conditions: 5 nM [3H]-methyllycaconitine, test compound up to 100 μM
[3] = target: rat α7 NNRs (Rattus norvegicus, UniProt Q05941); assay: ACh-evoked currents; format: cell-based; conditions: for pseudo-Hill slope (nH): variable slope sigmoid fit of inhibition of 60 μM ACh-evoked currents
[4] = target: presynaptic naturally-expressed α4β2-containing nicotinic receptors (Rattus norvegicus, UniProt P09483+P12390); assay: Nicotine-evoked [3H]-dopamine release from rat striatal synaptosomes; format: biochemical; conditions: read-out: DA Release IC50, 10 μM nicotine-evoked [3H]-dopamine release, mean (95% CI)
[5] = target: α7 NNRs (Rattus norvegicus, UniProt Q05941); assay: Epibatidine-evoked [3H]-norepinephrine release from rat hippocampal slices; format: cell-based
[6] = Maximum plasma concentrations achieved in clinical studies; format: in vivo, human; conditions: calculated from reported ng/mL and molecular weight
[7] = clinical studies, human plasma, cited from earlier work
[8] = target: α4β2 nicotinic receptors stably transfected in SH-EP1 cells (Homo sapiens, UniProt P17787+P43681); assay: 86Rb+ efflux in α4β2/SH-EP1 cells; format: cell-based; conditions: for extent of inhibition of nicotine-evoked 86Rb+ efflux: 10 μM nicotine; for extent of inhibition of TC-1827-evoked 86Rb+ efflux: 100 μM TC-1827; for effect on basal 86Rb+ efflux: compound alone, no agonist (data not shown)
α4β2 nicotinic receptors stably transfected in SH-EP1 cells, sequence (P43681 29-627 limits assumed): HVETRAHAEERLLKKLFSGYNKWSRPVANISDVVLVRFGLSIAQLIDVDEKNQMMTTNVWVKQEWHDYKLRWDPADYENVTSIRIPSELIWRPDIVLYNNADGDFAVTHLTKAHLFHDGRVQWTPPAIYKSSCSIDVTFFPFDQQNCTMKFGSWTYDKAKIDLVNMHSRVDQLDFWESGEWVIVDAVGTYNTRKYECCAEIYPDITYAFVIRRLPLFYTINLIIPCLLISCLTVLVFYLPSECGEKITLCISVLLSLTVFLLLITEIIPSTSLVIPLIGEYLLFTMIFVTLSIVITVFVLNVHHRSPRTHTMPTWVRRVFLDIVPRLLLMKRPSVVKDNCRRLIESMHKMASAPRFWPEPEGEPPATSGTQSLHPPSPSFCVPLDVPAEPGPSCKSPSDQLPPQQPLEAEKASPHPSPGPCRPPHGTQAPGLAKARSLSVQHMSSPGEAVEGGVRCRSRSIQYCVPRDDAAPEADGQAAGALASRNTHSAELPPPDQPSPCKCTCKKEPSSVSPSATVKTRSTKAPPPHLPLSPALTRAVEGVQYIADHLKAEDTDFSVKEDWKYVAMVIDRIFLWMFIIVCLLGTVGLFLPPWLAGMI
α4β2 nicotinic receptors stably transfected in SH-EP1 cells, sequence (P17787 26-502): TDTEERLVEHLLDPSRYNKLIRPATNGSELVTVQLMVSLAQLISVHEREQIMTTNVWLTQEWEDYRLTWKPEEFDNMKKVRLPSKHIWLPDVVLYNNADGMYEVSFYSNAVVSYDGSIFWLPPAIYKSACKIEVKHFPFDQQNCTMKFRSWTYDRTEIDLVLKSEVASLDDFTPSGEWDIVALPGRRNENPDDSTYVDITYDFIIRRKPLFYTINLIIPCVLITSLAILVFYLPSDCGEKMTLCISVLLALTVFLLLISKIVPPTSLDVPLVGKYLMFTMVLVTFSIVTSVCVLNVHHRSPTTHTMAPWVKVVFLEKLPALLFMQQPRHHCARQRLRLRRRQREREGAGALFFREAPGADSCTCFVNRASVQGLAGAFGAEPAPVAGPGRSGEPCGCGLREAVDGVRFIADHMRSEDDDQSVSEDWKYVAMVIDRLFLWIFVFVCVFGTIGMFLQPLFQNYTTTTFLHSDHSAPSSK

rat α7 NNRs, sequence (Q05941 23-502): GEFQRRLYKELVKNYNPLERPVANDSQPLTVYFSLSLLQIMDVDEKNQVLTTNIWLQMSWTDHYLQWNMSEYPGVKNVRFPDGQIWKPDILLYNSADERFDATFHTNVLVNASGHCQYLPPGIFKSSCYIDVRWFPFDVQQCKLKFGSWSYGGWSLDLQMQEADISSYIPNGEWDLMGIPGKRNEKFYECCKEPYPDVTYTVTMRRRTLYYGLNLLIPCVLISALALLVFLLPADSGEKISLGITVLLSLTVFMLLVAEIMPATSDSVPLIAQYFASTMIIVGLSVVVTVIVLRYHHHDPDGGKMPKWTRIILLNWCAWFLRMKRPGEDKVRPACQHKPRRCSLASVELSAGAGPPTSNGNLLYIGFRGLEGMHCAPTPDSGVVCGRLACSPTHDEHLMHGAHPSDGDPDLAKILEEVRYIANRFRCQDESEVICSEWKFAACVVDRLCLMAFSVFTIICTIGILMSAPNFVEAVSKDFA
recombinant α4β2 NNRs expressed in SH-EP1 cells, sequence (P43681 29-627 limits assumed): as the sequence (P43681 29-627 limits assumed) above
recombinant α4β2 NNRs expressed in SH-EP1 cells, sequence (P17787 26-502): as the sequence (P17787 26-502) above
presynaptic naturally-expressed α4β2-containing nicotinic receptors, sequence (P09483 31-630): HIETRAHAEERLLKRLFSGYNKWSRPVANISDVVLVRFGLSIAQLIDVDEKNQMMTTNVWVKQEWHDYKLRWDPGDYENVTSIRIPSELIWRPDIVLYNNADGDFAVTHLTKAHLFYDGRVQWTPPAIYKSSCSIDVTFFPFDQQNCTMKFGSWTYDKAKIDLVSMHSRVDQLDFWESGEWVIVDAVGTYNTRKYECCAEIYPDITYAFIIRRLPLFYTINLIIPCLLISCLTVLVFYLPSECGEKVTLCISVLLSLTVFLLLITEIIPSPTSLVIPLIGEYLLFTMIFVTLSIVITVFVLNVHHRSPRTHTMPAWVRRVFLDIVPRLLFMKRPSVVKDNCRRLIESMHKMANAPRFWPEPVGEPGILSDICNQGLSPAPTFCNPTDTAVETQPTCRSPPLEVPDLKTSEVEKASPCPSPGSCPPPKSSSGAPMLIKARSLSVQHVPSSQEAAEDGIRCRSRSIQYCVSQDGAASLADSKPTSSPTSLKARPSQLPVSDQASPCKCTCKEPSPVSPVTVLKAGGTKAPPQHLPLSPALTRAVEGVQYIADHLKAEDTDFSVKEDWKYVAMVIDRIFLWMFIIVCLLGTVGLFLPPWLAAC
presynaptic naturally-expressed α4β2-containing nicotinic receptors, sequence (P12390 25-500): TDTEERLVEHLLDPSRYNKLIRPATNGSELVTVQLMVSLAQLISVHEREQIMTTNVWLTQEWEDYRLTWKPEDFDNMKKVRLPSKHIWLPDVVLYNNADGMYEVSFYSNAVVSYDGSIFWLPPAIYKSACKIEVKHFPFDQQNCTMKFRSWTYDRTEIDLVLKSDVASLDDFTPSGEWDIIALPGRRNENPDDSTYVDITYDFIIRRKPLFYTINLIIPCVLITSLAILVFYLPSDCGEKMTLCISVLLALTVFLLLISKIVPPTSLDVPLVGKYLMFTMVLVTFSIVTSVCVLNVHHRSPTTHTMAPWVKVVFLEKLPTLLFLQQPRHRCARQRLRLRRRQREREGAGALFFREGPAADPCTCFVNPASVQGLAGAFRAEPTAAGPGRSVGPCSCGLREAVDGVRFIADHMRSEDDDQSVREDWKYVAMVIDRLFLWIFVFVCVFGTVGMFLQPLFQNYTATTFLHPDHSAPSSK
α7 NNRs, sequence (Q05941 23-502): as the sequence (Q05941 23-502) above
α7 NNR binding sites in rat hippocampal preparations, sequence (Q05941 23-502): as above

SMILES	inhibition of [3H]-nicotine binding [1]	inhibition of [3H]-methyllycaconitine binding [2]	IC50 [3]	pseudo-Hill slope (nH) [3]	IC50 [4]	IC50 [5]	extent of inhibition of nicotine-evoked 86Rb+ efflux [8]	extent of inhibition of TC-1827-evoked 86Rb+ efflux [8]	effect on basal 86Rb+ efflux [8]	Max. Plasma Levels ([6]; ref Dumortier et al., 1998)	Max. Plasma Levels ([6]; ref Wong et al., 2006)	Max. Plasma Levels ([7]; ref Dumortier et al., 1998)	Max. Plasma Levels ([7]; ref Wong et al., 2006)	other results
CN(C)CCCN1c2ccccc2Sc2ccc(Cl)cc21 [Chlorpromazine, chlorpromazine]	None of the compounds tested inhibited binding	None of the compounds tested inhibited binding	9100 nM	−0.84	2800 nM	1700 nM	–	–	–	–	–	–	–	Max. Plasma Levels ([6]; ref Chetty and Miller, 2001): 2.4 µM; Max. Plasma Levels ([6]; ref Chetty et al., 1996): 1.2 µM; Max. Plasma Levels ([7]; ref Chetty and Miller, 2001): 839 ng/mL; Max. Plasma Levels ([7]; ref Chetty et al., 1996): 422 ng/mL; Max. Plasma Levels ([7]; ref Della Corte et al., 1993): 124 ng/mL
CN1CCN(C2=Nc3cc(Cl)ccc3Nc3ccccc32)CC1 [Clozapine, clozapine]	None of the compounds tested inhibited binding	–	–	–	–	–	completely inhibited	fully inhibited	None of these compounds affected the basal	4.0 µM	5.9 µM	1310 ng/mL	1920 ng/mL	Max. Plasma Levels ([6]; ref Diaz et al., 2005): 1.8 µM; Max. Plasma Levels ([6]; ref Perry et al., 1991): 3.3 µM; Max. Plasma Levels ([7]; ref Diaz et al., 2005): 574 ng/mL; Max. Plasma Levels ([7]; ref Freudenreich et al., 1996): 880 ng/mL; Max. Plasma Levels ([7]; ref Perry et al., 1991): 1088 ng/mL
O=C(CCCN1CCC(O)(c2ccc(Cl)cc2)CC1)c1ccc(F)cc1 [Haloperidol, haloperidol]	None of the compounds tested inhibited binding	–	–	–	–	–	completely inhibited	–	None of these compounds affected the basal	–	–	–	–	Max. Plasma Levels ([6]; ref Roh et al., 2001): 0.23 µM; Max. Plasma Levels ([7]; ref Roh et al., 2001): 86 ng/mL
Clc1ccc2c(c1)N=C(N1CCNCC1)c1ccccc1N2 [N-desmethylclozapine]	None of the compounds tested inhibited binding	None of the compounds tested inhibited binding	3200 nM	−1.3	2100 nM	2200 nM	completely inhibited	fully inhibited	None of these compounds affected the basal	1.9 µM	2.3 µM	580 ng/mL	720 ng/mL	IC50 [8]: 2100 nM; activity at 6 µM ([3]; read-out: maximal ACh net charge response in the presence of inhibitor): 37.5 ± 5%; Max. Plasma Levels ([6]; ref Flanagan et al., 2003): 1.3 µM; Max. Plasma Levels ([7]; ref Flanagan et al., 2003): 420 ng/mL
OCCOCCN1CCN(C2=Nc3ccccc3Sc3ccccc32)CC1 [Quetiapine, quetiapine]	–	–	–	–	–	–	–	–	–	–	–	–	–	Max. Plasma Levels ([6]; ref Aichhorn et al., 2006): 1.3 µM; Max. Plasma Levels ([6]; ref Grimm et al., 2006): 2.7 µM; Max. Plasma Levels ([6]; ref Lin et al., 2004): 0.24 µM; Max. Plasma Levels ([7]; ref Aichhorn et al., 2006): 491 ng/mL; Max. Plasma Levels ([7]; ref Grimm et al., 2006): 1042 ng/mL; Max. Plasma Levels ([7]; ref Lin et al., 2004): 91 ng/mL; Max. Plasma Levels ([7]; ref Tauscher-Wisniewski et al., 2002): 1454 ng/mL
